Tests used:
NarK [1] = biological target: T1, NarK (Escherichia coli, UniProt P10903); assay: X-ray crystal structure (LCP, SIRAS and molecular replacement); details: occluded state (2.4 Å, pH 5.8, 100 mM NH4NO3) and inward-open state (2.4 Å, pH 6.0); central substrate-binding site
T1 construct: full-length gene in pET-modified vector; GFP-His8 tag cleaved by TEV protease; expressed in E. coli C41(DE3) delta-acrB; DDM/CHS purified; LCP crystals or soybean lipid proteoliposomes
T1 sequence (P10903 1-463): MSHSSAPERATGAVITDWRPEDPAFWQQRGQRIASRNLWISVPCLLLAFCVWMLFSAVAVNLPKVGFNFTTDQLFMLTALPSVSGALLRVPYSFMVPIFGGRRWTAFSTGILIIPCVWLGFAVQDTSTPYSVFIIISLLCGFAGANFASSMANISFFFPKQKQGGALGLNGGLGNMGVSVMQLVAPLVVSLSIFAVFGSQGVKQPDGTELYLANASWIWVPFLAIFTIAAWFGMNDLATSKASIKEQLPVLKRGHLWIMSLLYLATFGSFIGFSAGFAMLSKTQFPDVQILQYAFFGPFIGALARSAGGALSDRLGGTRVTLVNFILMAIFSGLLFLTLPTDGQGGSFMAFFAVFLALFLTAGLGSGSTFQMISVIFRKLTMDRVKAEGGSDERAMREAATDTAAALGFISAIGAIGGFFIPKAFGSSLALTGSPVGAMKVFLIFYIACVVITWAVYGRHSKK

NarK [2] = biological target: T1, NarK; assay: nitrite uptake into NarK proteoliposomes, DAF-FM fluorescence; format: biochemical; details: 50 mM NaNO2 outside, 50 mM NaNO3 inside as counter-anion; pH 7.0; membrane potential; 37 °C

O=[N+]([O-])O [nitrate]
X-ray crystal structure (LCP, SIRAS and molecular replacement) (NarK [1]): 4U4T (nitrate-bound inward-open state) and 4U4W (nitrate-bound occluded state)

O=NO [nitrite]
nitrite uptake into NarK proteoliposomes, DAF-FM fluorescence (NarK [2]): We observed the uptake of nitrite when nitrate was present inside the liposomes

— paper PMC4432589, “Structural basis for dynamic mechanism of nitrate/nitrite antiport by NarK” (Nature Communications, 2015)
